Test results: ChEMBL document CHEMBL1135486, “Acylating agents as enzyme inhibitors and understanding their reactivity for drug design” (J Med Chem, 2002)

assay: Second-order rate constant (M-1 s-1) for the alkaline hydrolysis in water at 30 degrees C; settings: buffer

Structure (SMILES)	kOH [M⁻¹ s⁻¹]
CC(C)[C@@H]1C(=O)N(S(C)(=O)=O)[C@@H]2CCN(C(=O)c3coc(CN4CCCC4)n3)[C@H]21	0.08
CC(C)[C@@H]1C(=O)N(S(C)(=O)=O)[C@@H]2CCN(C(=O)C3CN(CC(C)(C)C)C3)[C@H]21	0.0601
C=CC[C@H]1C(=O)OC2CCN(C(=O)OCc3ccccc3)[C@@H]21 (some centres undefined)	0.252
CC(C)[C@@H]1C(=O)N(S(C)(=O)=O)[C@@H]2CCN(C(=O)/C=C/CN3CCCCC3)[C@H]21	0.07
CN1C(=O)CCC1=O	0.825
CCC[C@H](NC(=O)N1C(=O)C(CC)(CC)C1Oc1ccc(C(=O)N2CCN(C)CC2)cc1)c1ccc2c(c1)OCO2 (some centres undefined)	0.027
O=C1c2ccccc2S(=O)(=O)N1Cc1ccccc1	4.06
CC(=O)N(C)C(C)=O	1.54
CC(=O)N(C)S(=O)(=O)Cc1ccccc1	1.3
O=C1CCCN1c1ccccc1	0.000013
O=C1CCCN1 [2-PYRROLIDONE]	1.2
O=C1CCCO1 [BUTYROLACTONE]	1.31
CCOC(C)=O [ETHYL ACETATE]	0.164
CN1CCCC1=O [METHYLPYRROLIDONE]	3.07
